Blank lines part the entries; values can stand above or below the substance they belong to.
What was measured:
[1] = target: T1, HLA.A2 on T2 mutant cells (Homo sapiens, UniProt P04439, D140Y/D185E/D98H/E176V/E277Q/G131W/G231S/I119V/I121R/I166T/I218V/L300P/L318F/N151K/N90K/P208A/P217A/Q86G/Q94H/R138H/R169H/T345S); assay: T2 feeding experiment and FACS analysis (HLA.A2 upregulation, MA2.1 staining), Example 2; format: cell-based
[2] = system: T2 cells loaded with MUC-1 synthetic peptides; assay: Cytotoxic T lymphocyte assay (51Cr release) against peptide loaded T2 targets, Example 2; format: cell-based, human; details: T-cells of three HLA.A2+ donors primed with liposomal 25 aa MUC-1 lipopeptide, 5 h 51Cr release, peptide 200 μM
Description: Cytotoxic T lymphocyte assays. For the CTL assay, three (HLA.A2^+) normal donors' PBLs were used. The T-cells were grown for two weeks in bulk cultures as described above. At the end of two weeks, live T-cells were harvested from flasks and counted. T2 cells used as CTL targets were loaded overnight with various MUC-1 synthetic peptides at 200 μM in presence of exogenous β2m. Houbiers et al., Eur. J. Immunol 23:2072-2077 (1993); Stauss et al., Proc. Natl. Acad. Sci. U.S.A. 89:7871-7875 (1992). These peptide loaded T2 target cells were then loaded with ^51Cr (using NaCrO4) for 90 min and washed extensively. CTL assays were performed as previously described. Agrawal et al., supra. Percent specific killing was calculated as: experimental release—spontaneous release/maximum release—spontaneous release×100. The effector versus target ratio was used as (1, 10, 50, 100 and 150). Each group was set up in four replicate and mean percent specific killing was calculated. As negative control OVA peptide […] loaded target T2 cells were used in the cytotoxic assay and percent specific killing of […] loaded targets was subtracted from each data point to obtain MUC-1 peptide specific percent specific killing.
We performed in vitro CTL assays in order to determine whether the MUC-1 peptides shown to be capable of binding to HLA.A2 on T2 mutant cells can be recognized as CTL epitopes in the context of MHC class I HLA.A2 molecules on target cells. T-cells from PBLs of three HLA.A2^+ donors were primed in vitro against MUC-1 antigen using a lipopeptide derivative of 25 amino acid MUC-1 peptide encapsulated in liposome pulsed autologous PBLs as APCs. The stimulated T-cells were harvested following two weeks in vitro culture (with 2 weekly restimulations) and tested for their cytotoxic activity against MUC-1 derived synthetic peptide (9 mers and 7 mer) loaded T2 cells as target in a 5 h ^51Cr release assay (FIG. 6). […] The targets loaded with 7 mer TSA . . . peptide were weakly killed by donor 2 at higher E/T ratios.

MAb BCP8 = assay: Competitive inhibition of binding of MAb BCP8 to class I MHC isolated MUC-1 peptides (ELISA); details: synthetic peptide 0-10 μM; MCF-7 derived fraction (FIG. 9)
Description: Competitive inhibition of binding of MAb BCP8 to class I MHC isolated putative MUC-1 peptide motifs by synthetic MUC-1 peptides. To show the specificity of binding of the BCP8 antibody to the peptides isolated from MCF-7, a fraction eluting at 19 min after secondary HPLC was diluted ⅙ with PBS and coated on microtiter wells overnight, then blocked as described above. The wells were incubated with 2 ng of BCP8 in 100 μl ELISA diluent, containing also amounts of peptide varying from 0-10 μM. Peptides used in this experiment were the 9 mers (SEQ ID NO: 3), […] and […] (SEQ ID NO: 17), and the 16 mer (SEQ ID NO: 15) […]. The ELISA was then processed as described above.

[3] = system: T-cells from PBLs of normal donors; assay: T-cell proliferation assay (3H-Tdr incorporation) of T-cells stimulated twice with liposomal antigen loaded autologous APCs; format: cell-based, human; details: T-cells stimulated twice in two weeks with BLP-25 liposome loaded autologous PBLs; antigen presented on autologous APCs
Description: T-cell Culture in Bulk For T-cell enrichment, 30-50×10^6 PBLs were suspended in 1 mL AIM-V media and loaded on media pre-conditioned 5 mL nylon wool columns (Robins Scientific, Sunnyvale, Calif.). The loaded nylon wool columns were incubated at 37° C. for 45 minutes and then the non-adhering T-cells were eluted by washing with warm (37° C.) AIM-V media. Initially, the bulk culture was started in a 25 cm^2 tissue culture sterile flask (Corning Glass, Corning, N.Y.). 10^7 T-cells were cultured in the presence of 10^7 antigen loaded, gamma-irradiated autologous PBLs in a total volume of 10 mL in AIM-V media for 16-24 hours, at which time the culture was fed with human rIL-7 (10 μg/mL) and human rIL-12 (100 pg/ml), and left for 6-8 more days. At the end of the 7-10 days of culture, surviving t-cells were collected and re-stimulated with autologous APCs loaded with liposomal antigen. After two consecutive cycles of re-stimulation (14-16 days), the T-cells were collected, and counted. The supernatant was collected from bulk cultures at 14 days for cytokine screening and kept frozen at −80° C. until used for the assay. Repeated freeze/thaw was prevented. […] Incorporation of ^3H-Tdr into DNA of proliferating cells was measured after harvesting the plates and counting in the matrix beta counter. […]

[4] = system: T cells stimulated with autologous PBLs loaded with liposomes containing BLP-25; assay: Cytokine ELISA of supernatant of microtiter wells in the proliferation assay; format: cell-based, human; details: soluble peptide, 100 ug; T cells pre-stimulated with BLP-25 liposomes 100 ug; 6th day of culture
Description: T-Cell Proliferation Assay T-cells (5×10^4-1×10^5) obtained at the end of 14-16 days of culture, as described above, were incubated in the presence of various antigen-containing liposomes, soluble BP24, soluble BLP-24M, loaded or unloaded autologous liposomes, and mitomycin C treated APCs (5×10^4-10^5), in a total volume of 200 μL in AIM-V medium, in 96-well flat-bottom tissue culture plates—for a period of 5 days at 37° C., 7% CO2 and moisture. Each group was cultured in 5 replicate wells. At the end of 5 days, 100 μL of culture supernatant was collected from each well and tested for the presence of γ-IFN or IL-4 by ELISA, as described below. After collecting the supernatant for cytokines, 1 μCi^3H-Tdr (Amersham Canada Limited, Oaksville, Ontario) was added into each well and incubated overnight. Incorporation of ^3H-Tdr into DNA of proliferating cells was measured after harvesting the plates and counting in the matrix beta counter. […]
For the γ-IFN assay, 96-well Nunc ELISA plates were coated overnight at 4° C. with mouse anti-human γ-IFN monoclonal antibody (Genzyme, Cambridge, Mass.) in NaHCO3 buffer (0.1 M, pH 9.5). […] At this time, the plates were read in the ELISA reader (Molecular Devices Corporation, Menlo Park, Calif.) in kinetic mode [Molecular Thermomax dual wavelength (405-490 nm)]. […]

[5] = target: T1, HLA.A2 on T2 mutant cells; assay: MUC-1 peptide-mediated upregulation of HLA.A2 expression on T2 cells, Example 1; format: cell-based; details: FIG. 6A
Source text: FIG. 6A: Upregulation of HLA.A2 expression on T2 mutant cells by MUC-1 peptides […] (SEQ ID NO: 1) and […] (SEQ ID NO: 2). […] was used as a positive control (SEQ ID NO: 1) and H-2Kb (61-69) peptide (SEQ ID NO: 3) was used as negative control for HLA-A2 upregulation. The x-axis represents fluorescence intensity and the y-axis represents the cell number. Markers M1 and M2 were set to visually examine the increase expression of HLA.A2. Mean channel intensity (MCI) is shown in each histogram.
Cytotoxic T lymphocyte assays. For the CTL assay, three (HLA.A2^+) normal donors' PBLs were used. The T-cells were grown for two weeks in bulk cultures as described above. At the end of two weeks, live T-cells were harvested from flasks and counted. The targets were mutant T2 cells. Houbiers et al., Eur. J. Immunol 23:2072-2077 (1993); Stauss et al., Proc. Natl. Acad. Sci. U.S.A. 89:7871-7875 (1992). The MUC-1 peptide-mediated upregulation of HLA.A2 expression on T2 cells was examined using the MUC-1 nine-mer peptides (SEQ ID NO: 25) […] and […] using known methods. Townsend et al., Nature 346:476 (1989). […] Percent specific killing was calculated as: experimental release—spontaneous release/maximum release—spontaneous release×100. […] Each group was set up in four replicate and mean percent specific killing was calculated.

Substance: DSTSSPVHSGTSSPATSAPEDSTS [BP-24M, mouse MUC-1, 24-amino acid peptide, control]
- T-cell proliferative response against the test antigen [3]: no proliferative T-cell response
- IFN-γ (pg/ml) ± S.D. [4]: 193 ± 79 pg/mL
- IL-4 (pg/ml) ± S.D. [4]: <31.00 pg/mL

Substance: STAPPAHGV
- upregulation of HLA.A2 expression on T2 cells [5]: higher upregulation of HLA.A2 expression on T2 cells than did

Substance: TSAPDTRPA [MUC-1 tandem repeat 9 mer]
- upregulation of class I expression on T2 cells ([1]; FIG. 11 and repeat experiments): strong upregulation of class I expression
- specific killing of T2 targets loaded with the peptide [2]: performed exceptionally well
- specific killing of T2 targets loaded with the peptide ([2]; listed as 9 mers TSA . . .): specifically killed to the highest degree

More lines, main results first:

- δMCI, HLA.A2 expression on T2 cell surface ([1]; peptide in excess at 50 μM/well): 2
Substance: TSAPDTR [MUC-1 7 mer, class I-associated peptide]
- specific killing of T2 targets loaded with the peptide [2]: weakly killed

- inhibition of binding of BCP8 to the isolated MUC-1 peptides (MAb BCP8): did not inhibit binding
Substance: GVTSAPDTR [MUC-1 tandem repeat 9 mer]

- upregulation of HLA.A2 expression on T2 cells [5]: strongly upregulates HLA.A2 expression
Substance: SIINFEKL [8-mer ovalbumin (OVA) peptide, negative control in CTL assay, reference compound]

- % Change in mean channel intensity ([1]; T2 cell assay, HLA.A2 expression (MA2.1 staining)): 48%
Substance: SAPDTRPAP [MUC-1 tandem repeat 9 mer]
- specific killing of T2 targets loaded with the peptide [2]: specifically killed to the highest degree

From patent publication US6600012B1, “Lipid-modified muc-1 derivatives” (Biomira, Inc., priority 1997, dated 2003)
